According to patent US7011948B2, “Detection of ligand-antiligand complex formation by electromagnetically detectable bulk property measurement” (MDS Sciex, priority 2002, dated 2006):
“Also recorded” adds a separate entry of the source. Like-named read-outs stand apart in the source and are kept apart here.

Columns and labels:
[1] = target: T1, Ribonuclease A (RNase A) (Bos taurus, UniProt P61823); test: Multipole Coupling Spectroscopy (MCS) binding titration of CMP ligands with RNase A; conditions: for binding strength to RNase A in words: summary of ITC and MCS results
T1 construct: purchased Sigma (St. Louis, Mo.) R5503
T1 sequence (P61823 27-150): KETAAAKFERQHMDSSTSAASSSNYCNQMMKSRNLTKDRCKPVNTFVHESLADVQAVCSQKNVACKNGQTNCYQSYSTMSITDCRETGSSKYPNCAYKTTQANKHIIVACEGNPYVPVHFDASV
Excerpt: Given the equation εtot=α+βL0+γg(A0,L0,KD), it can be seen that εtot is a function of L0 and KD (F(L0,KD)). εtot is a measured value and L0 is known. If KD is fixed, εtot can be predicted from L0. Then, KD can be adjusted until the predicted and measured values of εtot are as close as possible according to a nonlinear least squares analysis defined as follows: {(^1L0,^1εtot)|i=1, 2, . . . n} measurements find KD such that • Σ[^1εtot−F(^iLO,KD)]^2 is a minimum.
This formula defines the objective function for this nonlinear least squares problem. The problem is called a least squares problem because the objective function is the sum of the squares of the residuals (differences) between the measurements and the model predictions. The solution is the value of KD that minimizes the objective function. FIG. 7 depicts a plot showing an example of this objective function. There are many ways to minimize the objective function. Any standard function optimization algorithm, such as the steepest descent algorithm, can be used. Some objective function minimization methods take advantage of the particular structure of this objective function, for example the conjugate gradient method and the Levenberg-Marquardt method, and their use may be preferred in many instances. In this way, the strength of the ligand/antiligand bond can be quantified.
Materials. Ribonuclease A, (RNase A, catalogue # R5503)), cytidine 2′-monophosphate free acid (2′-CMP, catalogue # C7137), cytidine 3′-monophosphate free acid (3′-CMP, catalogue # C1133), cytidine 5′-monophosphate free acid (5′-CMP, catalogue # C1131), sodium chloride (catalogue # S7653), magnesium chloride (catalogue # M2670), Bis-Tris free base (catalogue # B7535), and Bis-Tris hydrochloride salt (catalogue # B6032) were purchased from Sigma (St. Louis, Mo.). The surfactant NP-40 (catalogue # 492015) was purchased from Calbiochem (San Diego, Calif.). These reagents were used without further purification. All solutions were prepared using milliQ water. These experiments were performed in a pH 6.0 150 mM BIS-TRIS buffer containing 10 mM sodium chloride, 10 mM magnesium chloride, and 0.005% v/v NP-40. Preparation of Sample Solutions. The protein solution was prepared by dissolving RNase A in the Bis-Tris buffer to give a final concentration of 1 mM protein; no subsequent dialysis was performed. The ligand solutions were prepared by dissolving 2′-CMP, 3′-CMP or 5′-CMP in the 1 mM RNase A solution to give a final concentration of 4 mM ligand. A series of samples which formed the basis of the ligand binding curve were prepared by mixing various ratios of the above two solutions as outlined in Table 1. Multipole Coupling Spectroscopy (MCS). […] The flow cell (a polyimide tube with an 0.0285″ I.D. and an 0.0305″ O.D. from HV Technologies, Trenton, Ga.) was mounted on the top of the coaxial resonating detector such that only the wall of the tubing separated the detector and the fluidic sample. The AFM was used to draw the fluidic samples into the detection region of the flow cell. The network analyzer settings used were S11 reflection, log magnitude, linear frequency sweep in stepped mode, 401 points, IF bandwidth of 30 Hz, power of −5 dBm, and no cable calibration was applied.
To set up the instrument to measure the data of a binding titration, the protein solution was first introduced to the flow cell of the coaxial resonating fixture and the fixture was coupled by adjusting the size of the gap until the desired reflection was achieved (approximately −30 dBm). The co-axial resonator has a sliding mechanism composed of a single dimension translation stage and a mechanical motor (Picomotor Driver from New Focus Inc., San Jose, Calif.) to adjust the gap size separating the pieces of coax such that the desired MCS reflection is achieved. Each of the remaining fluidic samples described in Table 1, below, were sequentially measured. […]

[2] = target: T2, RNase (Bos taurus, UniProt P61823); test: Isothermal Titration Calorimetry (ITC) binding to RNase
T2 sequence (P61823 27-150): T1 sequence (P61823 27-150)
Excerpt: Table 2, below, provides the chemical structure of each of the three CMP ligands used in this experiment and a comparison of their dissociation constants (KD) binding to RNase as determined by Isothermal Titration Calorimetry (ITC) and Multipole Coupling Spectroscopy (MCS).

[3] = target: T3, RNase A (Bos taurus, UniProt P61823); test: Refractive index binding titration of 2′CMP with RNase A; conditions: 1 mM RNase; 150 mM Bis-Tris buffer pH 6; 2′CMP up to 4 mM
T3 construct: purchased Sigma
T3 sequence (P61823 27-150): T1 sequence (P61823 27-150)
Protocol: As verification of the generality of the inventive technique in bulk property situations other than the measurements involving permittivity, an experiment was carried out by measuring refractive index as the bulk property of a test solution. The binding assay used was one of the ones shown in Example 1, namely binding of RNase A to the RNase inhibitor 2′CMP. The refractometer used to measure the refractive index of the samples was a Wyatt Technologies Optilab DSP refractometer, calibrated using sodium chloride solutions as described in the manufacturer's instructions. RNase (Sigma) was dissolved in a buffer containing 150 mM Bis-Tris, 10 mM NaCl, 10 mM MgCl2, 0.005% […], pH 6, to provide 1 mM RNase. A portion of this solution was fed into the reference cell of the refractometer, and the instrument was left standing until the readout had stabilized. The test ligand, 2′CMP, was dissolved to 4 mM in a portion of the 1 mM RNase solution, and a titration was prepared to produce the following concentrations.
Samples were then loaded into the Optilab sample cell using a syringe and measured in the following order: […]
The refractometer was zeroed using a 1 mM RNase solution. […] The refractive index change relative to the reference cell was calculated using the software and plotted against the concentration of 2′CMP.

[4] = 27° C., 1 mM RNase A, pH 6.0 Bis-Tris buffer, vs ligand-to-protein ratio
[5] = 27° C., 1 mM RNase A, pH 6.0 Bis-Tris buffer, 1.3 GHz, vs ligand concentration, read-out: KD from fit of absolute permittivity values (e′ real part of permittivity), FIG. 11A
[6] = 27° C., 1 mM RNase A, pH 6.0 Bis-Tris buffer, vs ligand-to-protein ratio, read-out: KD from fit of change in impedance (Zi, imaginary part of impedance), FIG. 11E
[7] = 27° C., 1 mM RNase A, pH 6.0 Bis-Tris buffer, vs ligand-to-protein ratio, read-out: MCS KD from fit of change in permittivity (e′ real part of permittivity), FIG. 11C

KD from fit of absolute permittivity values (e′ real part of permittivity), FIG. 11A ([1]; 27° C., 1 mM RNase A, pH 6.0 Bis-Tris buffer, 1.3 GHz, vs ligand concentration) | KD from fit of change in impedance (Zi, imaginary part of impedance), FIG. 11E [1, 4] | binding strength to RNase A in words [1] | ITC KD [2] | Kd [1, 5] | Kd [1, 6] | Kd [1, 7] | Kd [2] | SMILES | MCS KD from fit of change in permittivity (e′ real part of permittivity), FIG. 11C [1, 4] | refractive index change vs concentration plot (FIG. 12), binding detection [3]
No suitable curve fit was achieved | No suitable curve fit was achieved | unmeasurably weak | non-binding | – | – | – | – | Nc1ccn([C@@H]2O[C@H](COP(=O)(O)O)[C@@H](O)[C@H]2O)c(=O)n1 [5′-CMP, cytidine 5′-monophosphate free acid] | No suitable curve fit was achieved; also recorded: non-binding | –
– | – | relatively strong binder | – | 10 µM | 11 µM | 10 µM | 6.3 µM | Nc1ccn([C@@H]2O[C@H](CO)[C@@H](O)[C@H]2OP(=O)(O)O)c(=O)n1 [2′-CMP, cytidine 2′-monophosphate free acid] | – | deviates significantly from linearity, indicating that binding has taken place
– | – | relatively weak binder | – | 130 µM | 75 µM | 130 µM | 75 µM | Nc1ccn([C@@H]2O[C@H](CO)[C@@H](OP(=O)(O)O)[C@H]2O)c(=O)n1 [3′-CMP, cytidine 3′-monophosphate free acid] | – | –
